Measurements from patent US8110545B2, “Non-proteolysable oligopeptides that inhibit glycoprotein GP41 of the aids virus” (priority 2005, dated 2012).

Target: T1, gp41 of HIV-1 (Human immunodeficiency virus type 1 group M subtype B, UniProt P03375)
T1 construct: cell-cell fusion induced by gp41 of HIV-1 expressed in CHO cells; expressed in transfected cells; host or cells: CHO cells (effector), co-cultured with CD4-expressing HeLa cells (target)
Assay type: cell-based, HIV-1 (BH10 isolate)
Conditions: 20 nM T-20, positive inhibition control, 37° C., 16 hours
Procedure: The effect has been measured as the inhibition of cell-cell fusion induced by gp41 of HIV-1 expressed in CHO cells, which takes place when they are mixed with CD4 receptor-expressing HeLa cells (BH10 isolate: Gene Bank access number M15654). The oligopeptide concentration was 5 μM and the temperature was 37° C. Incubation in the cell culture medium (GMEM-S supplemented with 1 mM sodium pyruvate and 0.4 mM methionine sulfoximine) was performed for 16 hours. The bars correspond to the number of nuclei in syncytial plates (fused cells with more than 4 nuclei) per field after this time. The means of 4 individual measurements plus the standard deviations are shown.
As a positive inhibition control, cells treated with 20 nM of T-20 (enfuvirtide) are shown. The sample, in the sole presence of gqidev, was processed following the protocol described in the preceding figure.
The lines represent adjustments to hyperbolic-type functions. The assay, in the presence of increasing quantities of oligopeptides, was performed and quantified in accordance with the description of FIG. 3. […]
It was added, at a concentration of 5 μM (micromolar), to the cell culture medium (GMEM-S supplemented with 1 mM sodium pyruvate and 0.4 mM methionine sulfoximine). […] The activity of gp41 is detected by the formation of multi-nucleated cells (CTL panel) produced by the fusion of the plasma membranes.

T1 sequence (P03375 512-856): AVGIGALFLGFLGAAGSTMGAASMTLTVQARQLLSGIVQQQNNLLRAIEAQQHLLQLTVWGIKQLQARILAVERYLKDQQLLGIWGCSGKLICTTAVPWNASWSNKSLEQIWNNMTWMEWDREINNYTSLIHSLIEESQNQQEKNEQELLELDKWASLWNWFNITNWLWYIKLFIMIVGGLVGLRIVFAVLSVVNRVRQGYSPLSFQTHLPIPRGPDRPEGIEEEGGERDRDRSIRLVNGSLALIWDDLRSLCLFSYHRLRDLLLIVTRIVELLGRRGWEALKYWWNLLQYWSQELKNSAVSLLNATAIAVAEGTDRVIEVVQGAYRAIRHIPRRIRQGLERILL

In the case of enfuvirtide, the “inhibitory effect on gp41 activity (cell-cell fusion, formation of syncytia)” value is reported as “comparable inhibition of gp41”.
